Positions of bridges follow the written chain, without caps; N, C: chain ends. Non-standard residues stand in square brackets, D forms with d. Residues, ends and D or L forms follow the SMILES beside them. ξ: configuration not given here. *: point of attachment. Phe(4-COOH) = N[C@@H](Cc1ccc(C(=O)O)cc1)C(=O)O; Bip = N[C@@H](Cc1ccc(-c2ccccc2)cc1)C(=O)O; NMeF = CN[C@@H](Cc1ccccc1)C(=O)O; Thr(3ξ) = CC(O)[C@H](N)C(=O)O; ξR = N=C(N)NCCCC(N)C(=O)O; Carboxymethyl = O=C(O)C*; NMeA = CN[C@@H](C)C(=O)O; Nle = CCCC[C@H](N)C(=O)O; Orn = NCCC[C@H](N)C(=O)O; Dab = NCC[C@H](N)C(=O)O; dAze = O=C(O)[C@H]1CCN1; Dap = NC[C@H](N)C(=O)O; ξS = NC(CO)C(=O)O; Sar = CNCC(=O)O
Each molecule was assayed against T1, human PD-1 (Jurkat-PD-1 cells) / PE-labeled human PD-L1-Ig (Homo sapiens, UniProt Q15116) (assay: Jurkat-PD-1 Cell Binding High-Content Screening Assay (CBA); Jurkat hPD1-PDL1 assay). Conditions: Jurkat cell line over-expressing human PD-1; PE-labeled PD-L1-Ig 20 nM final; compound incubated 2 hours at 37° C.; read-out: Jurkat HPD1-PDL1 IC50.
T1 construct: expressed in transfected cells; host or cells: Jurkat cell line over-expressing human PD-1
In short: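 Jurkat cells over-expressing human PD-1, seeded in DMEM with 10% fetal calf serum, were preincubated with compound for 2 hours at 37° C. PE-labeled human PD-L1-Ig was then added at 20 nM final, and cell-bound fluorescence was read by high-content imaging.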

T1 sequence (Q15116 25-288): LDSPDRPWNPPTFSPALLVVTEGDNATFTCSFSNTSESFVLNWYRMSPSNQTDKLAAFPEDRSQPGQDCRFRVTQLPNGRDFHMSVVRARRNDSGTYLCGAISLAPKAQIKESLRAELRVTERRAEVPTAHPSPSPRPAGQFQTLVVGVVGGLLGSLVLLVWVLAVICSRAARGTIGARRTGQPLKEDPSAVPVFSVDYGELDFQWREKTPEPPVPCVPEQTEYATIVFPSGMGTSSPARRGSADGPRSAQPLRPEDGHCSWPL

Structure (SMILES)	IC50
CC(C)C[C@@H]1NC(=O)[C@H](Cc2c[nH]c3ccccc23)NC(=O)[C@H](CC(=O)O)NC(=O)[C@H](Cc2ccc(C(=O)O)cc2)NC(=O)[C@H](CN)NC(=O)CSC[C@@H](C(=O)N[C@@H](C)C(N)=O)NC(=O)[C@H](CO)NC(=O)[C@H](C(C)C)NC(=O)[C@H](CC(C)C)NC(=O)[C@H](CC(N)=O)NC(=O)[C@H]2CCCN2C(=O)[C@H](C)N(C)C(=O)[C@H](C(C)C)NC(=O)[C@H](Cc2ccc(-c3ccccc3)cc2)NC1=O [Example 1390] ({CH2CO}-[Dap][Phe(4-COOH)]DWL[Bip]V[NMeA][dP]NLVSCA-NH2; thioether N-14)	20 nM
CC(C)C[C@@H]1NC(=O)[C@H](CCN)NC(=O)[C@H](Cc2ccccc2)N(C)C(=O)[C@H](C)N(C)C(=O)[C@H](CCC(=O)O)NC(=O)[C@H](Cc2ccc(-c3ccccc3)cc2)NC(=O)[C@H](C(C)C)NC(=O)[C@H](Cc2c[nH]c3ccccc23)NC(=O)[C@H](CC(=O)O)NC(=O)[C@H](Cc2ccc(O)cc2)NC(=O)[C@H](Cc2ccccc2)NC(=O)CSC[C@@H](C(=O)N[C@@H](C)C(N)=O)NC(=O)[C@H]([C@@H](C)O)NC(=O)[C@H](C(C)C)NC1=O [Example 1342] ({CH2CO}-FYDWV[Bip]E[NMeA][NMeF][Dab]LVTCA-NH2; thioether N-14)	70 nM
CCCC[C@@H]1NC(=O)[C@H](CC(N)=O)NC(=O)[C@H]2CCCN2C(=O)[C@H](C)N(C)C(=O)[C@H](C(C)C)NC(=O)[C@H](Cc2ccc(-c3ccccc3)cc2)NC(=O)[C@H](CC(C)C)NC(=O)[C@H](Cc2c[nH]c3ccccc23)NC(=O)[C@H](CC(=O)O)NC(=O)[C@H](Cc2ccc(O)cc2)NC(=O)[C@H](Cc2ccccc2)NC(=O)CSC[C@@H](C(=O)N[C@@H](C)C(N)=O)NC(=O)[C@H]([C@@H](C)O)NC(=O)[C@H](C(C)C)NC1=O [Example 1097] ({CH2CO}-FYDWL[Bip]V[NMeA][dP]N[Nle]VTCA-NH2; thioether N-14)	280 nM
CC(C)C[C@@H]1NC(=O)[C@H](Cc2c[nH]c3ccccc23)NC(=O)[C@H](CC(=O)O)NC(=O)[C@H](Cc2ccc(O)cc2)NC(=O)[C@H](Cc2ccccc2)NC(=O)CSC[C@@H](C(=O)N[C@@H](C)C(N)=O)NC(=O)[C@H](CO)NC(=O)[C@H](C(C)C)NC(=O)[C@H](CC(C)C)NC(=O)[C@H](CC(N)=O)NC(=O)CN(C)C(=O)[C@H](C)N(C)C(=O)[C@H](C(C)C)NC(=O)[C@H](Cc2ccc(-c3ccccc3)cc2)NC1=O [Example 1252] ({CH2CO}-FYDWL[Bip]V[NMeA][Sar]NLVSCA-NH2; thioether N-14)	190 nM
CC(C)C[C@@H]1NC(=O)[C@H](Cc2c[nH]c3ccccc23)NC(=O)[C@H](CC(=O)O)NC(=O)[C@H](Cc2ccc(O)cc2)NC(=O)[C@H](Cc2ccccc2)NC(=O)CSC[C@@H](C(=O)NCC(N)=O)NC(=O)C(CO)NC(=O)[C@H](C(C)C)NC(=O)[C@H](CC(C)C)NC(=O)[C@H](CC(N)=O)NC(=O)[C@H]2CCCN2C(=O)[C@H](CCCN)NC(=O)[C@H](C(C)C)NC(=O)[C@H](Cc2ccc(-c3ccccc3)cc2)NC1=O (stereo partly shown) [Example 1419] ({CH2CO}-FYDWL[Bip]V[Orn][dP]NLV[ξS]CG-NH2; thioether N-14)	120 nM
CC(C)C[C@@H]1NC(=O)C(CCCNC(=N)N)NC(=O)[C@H](Cc2ccccc2)N(C)C(=O)[C@H](CCC(=O)O)NC(=O)[C@H](CCCNC(=N)N)NC(=O)[C@H](Cc2ccc(-c3ccccc3)cc2)NC(=O)[C@H](C(C)C)NC(=O)[C@H](Cc2c[nH]c3ccccc23)NC(=O)[C@H](CC(=O)O)NC(=O)[C@H](Cc2ccc(O)cc2)NC(=O)[C@H](Cc2ccccc2)NC(=O)CSC[C@@H](C(=O)NCC(N)=O)NC(=O)[C@H](CO)NC(=O)[C@H](C(C)C)NC1=O (stereo partly shown) [Example 1223] ({CH2CO}-FYDWV[Bip]RE[NMeF][ξR]LVSCG-NH2; thioether N-14)	990 nM
CC(C)C[C@@H]1NC(=O)[C@H](Cc2c[nH]c3ccccc23)NC(=O)[C@H](CC(=O)O)NC(=O)[C@H](Cc2ccc(OCC(=O)O)cc2)NC(=O)[C@H](Cc2ccccc2)NC(=O)CSC[C@@H](C(=O)N[C@@H](C)C(N)=O)NC(=O)[C@H](CO)NC(=O)[C@H](C(C)C)NC(=O)[C@H](CC(C)C)NC(=O)[C@H](CC(N)=O)NC(=O)[C@H]2CCCN2C(=O)[C@H](C)N(C)C(=O)[C@H](C(C)C)NC(=O)[C@H](Cc2ccc(-c3ccccc3)cc2)NC1=O [Example 1029] ({CH2CO}-FY(Carboxymethyl)DWL[Bip]V[NMeA][dP]NLVSCA-NH2; thioether N-14)	50 nM
CC(C)C[C@@H]1NC(=O)[C@H](Cc2c[nH]c3ccccc23)NC(=O)[C@H](CC(=O)O)NC(=O)[C@H](Cc2ccc(C(=O)O)cc2)NC(=O)[C@H](Cc2cnc[nH]2)NC(=O)CSC[C@@H](C(=O)N[C@@H](C)C(N)=O)NC(=O)[C@H](CO)NC(=O)[C@H](C(C)C)NC(=O)[C@H](CC(C)C)NC(=O)[C@H](CC(N)=O)NC(=O)[C@H]2CCCN2C(=O)[C@H](C)N(C)C(=O)[C@H](C(C)C)NC(=O)[C@H](Cc2ccc(-c3ccccc3)cc2)NC1=O [Example 1046] ({CH2CO}-H[Phe(4-COOH)]DWL[Bip]V[NMeA][dP]NLVSCA-NH2; thioether N-14)	80 nM
CC(C)C[C@@H]1NC(=O)[C@H](Cc2c[nH]c3ccccc23)NC(=O)[C@H](CC(=O)O)NC(=O)[C@H](Cc2ccc(O)cc2)NC(=O)[C@H](Cc2ccccc2)NC(=O)CSC[C@@H](C(=O)N[C@@H](CCC(=O)O)C(N)=O)NC(=O)[C@H](CO)NC(=O)[C@H](C(C)C)NC(=O)[C@H](CC(C)C)NC(=O)[C@H](CC(N)=O)NC(=O)CN(C)C(=O)[C@H](C)N(C)C(=O)[C@H](C(C)C)NC(=O)[C@H](Cc2ccc(-c3ccccc3)cc2)NC1=O [Example 1251] ({CH2CO}-FYDWL[Bip]V[NMeA][Sar]NLVSCE-NH2; thioether N-14)	360 nM

More lines, in order of falling IC50, values ahead:

IC50	Structure (SMILES)
960 nM	CC(C)C[C@@H]1NC(=O)[C@H](Cc2c[nH]c3ccccc23)NC(=O)[C@H](CC(=O)O)NC(=O)[C@H](Cc2ccc(O)cc2)NC(=O)[C@H](Cc2ccccc2)NC(=O)CSC[C@@H](C(=O)NCC(N)=O)NC(=O)[C@H](CO)NC(=O)[C@H](C(C)C)NC(=O)[C@H](CC(C)C)NC(=O)[C@H](CO)NC(=O)CN(C)C(=O)[C@H](C)N(C)C(=O)[C@H](C(C)C)NC(=O)[C@H](Cc2ccc(-c3ccccc3)cc2)NC1=O [Example 1225] ({CH2CO}-FYDWL[Bip]V[NMeA][Sar]SLVSCG-NH2; thioether N-14)
820 nM	CC[C@H](C)[C@@H]1NC(=O)[C@H](Cc2c[nH]c3ccccc23)NC(=O)[C@H](CC(=O)O)NC(=O)[C@H](Cc2ccc(O)cc2)NC(=O)[C@H](Cc2ccccc2)NC(=O)CSC[C@@H](C(=O)NCC(N)=O)NC(=O)[C@H](CO)NC(=O)[C@H](C(C)C)NC(=O)[C@H](CC(C)C)NC(=O)[C@H](CCCNC(=N)N)NC(=O)[C@H](Cc2ccccc2)N(C)C(=O)[C@H](C)N(C)C(=O)[C@H](CCCNC(=N)N)NC(=O)[C@H](Cc2ccc(-c3ccccc3)cc2)NC1=O [Example 1284] ({CH2CO}-FYDWI[Bip]R[NMeA][NMeF]RLVSCG-NH2; thioether N-14)
350 nM	CC(C)C[C@@H]1NC(=O)[C@H](Cc2c[nH]c3ccccc23)NC(=O)[C@H](CC(=O)O)NC(=O)[C@H](Cc2ccc(O)cc2)NC(=O)[C@H](Cc2ccccc2)NC(=O)CSC[C@@H](C(=O)NCC(N)=O)NC(=O)[C@H](C(C)O)NC(=O)[C@H](C(C)C)NC(=O)[C@H](CC(C)C)NC(=O)[C@H](CC(N)=O)NC(=O)CN(C)C(=O)[C@H](C)N(C)C(=O)[C@H](C(C)C)NC(=O)[C@H](Cc2ccc(-c3ccccc3)cc2)NC1=O (stereo partly shown) [Example 1109] ({CH2CO}-FYDWL[Bip]V[NMeA][Sar]NLV[Thr(3ξ)]CG-NH2; thioether N-14)
250 nM	CC(C)C[C@@H]1NC(=O)[C@H](Cc2ccccc2)NC(=O)[C@H](CC(=O)O)NC(=O)[C@H](Cc2ccc(O)cc2)NC(=O)[C@H](Cc2ccccc2)NC(=O)CSC[C@@H](C(=O)NCC(N)=O)NC(=O)[C@H](CO)NC(=O)[C@H](C(C)C)NC(=O)[C@H](CC(C)C)NC(=O)[C@H](CC(N)=O)NC(=O)CN(C)C(=O)[C@H](C)N(C)C(=O)[C@H](C(C)C)NC(=O)[C@H](Cc2ccc(-c3ccccc3)cc2)NC1=O [Example 1088] ({CH2CO}-FYDFL[Bip]V[NMeA][Sar]NLVSCG-NH2; thioether N-14)
230 nM	COc1ccc(C[C@@H]2NC(=O)CSC[C@@H](C(=O)NCC(N)=O)NC(=O)[C@H](CO)NC(=O)[C@H](C(C)C)NC(=O)[C@H](CC(C)C)NC(=O)[C@H](CCCNC(=N)N)NC(=O)[C@H](Cc3ccccc3)N(C)C(=O)[C@H](C)N(C)C(=O)[C@H](CCCNC(=N)N)NC(=O)[C@H](Cc3ccc(-c4ccccc4)cc3)NC(=O)[C@H](C(C)C)NC(=O)[C@H](Cc3c[nH]c4ccccc34)NC(=O)[C@H](CC(=O)O)NC(=O)[C@H](Cc3ccc(O)cc3)NC2=O)cc1 [Example 1247] ({CH2CO}-Y(Me)YDWV[Bip]R[NMeA][NMeF]RLVSCG-NH2; thioether N-14)
60 nM	CC(C)C[C@@H]1NC(=O)C(CCCNC(=N)N)NC(=O)[C@H](Cc2ccccc2)N(C)C(=O)[C@H](C)N(C)C(=O)[C@H](CCCNC(=N)N)NC(=O)[C@H](Cc2ccc(-c3ccccc3)cc2)NC(=O)[C@H](C(C)C)NC(=O)[C@H](Cc2c[nH]c3ccccc23)NC(=O)[C@H](CC(=O)O)NC(=O)[C@H](Cc2ccc(C(=O)O)cc2)NC(=O)[C@H](Cc2ccccc2)NC(=O)CSC[C@@H](C(=O)NCC(N)=O)NC(=O)[C@H](CO)NC(=O)[C@H](C(C)C)NC1=O (stereo partly shown) [Example 1222] ({CH2CO}-F[Phe(4-COOH)]DWV[Bip]R[NMeA][NMeF][ξR]LVSCG-NH2; thioether N-14)
40 nM	CC(C)C[C@@H]1NC(=O)[C@H](Cc2c[nH]c3ccccc23)NC(=O)[C@H](CC(=O)O)NC(=O)[C@H](Cc2ccc(O)cc2)NC(=O)[C@H](Cc2ccccc2)NC(=O)CSC[C@@H](C(=O)N[C@@H](C)C(N)=O)NC(=O)[C@H](CO)NC(=O)[C@H](C(C)C)NC(=O)[C@H](CC(C)C)NC(=O)[C@H](CC(N)=O)NC(=O)[C@H]2CCN2C(=O)[C@H](C)N(C)C(=O)[C@H](C(C)C)NC(=O)[C@H](Cc2ccc(-c3ccccc3)cc2)NC1=O [Example 1021] ({CH2CO}-FYDWL[Bip]V[NMeA][dAze]NLVSCA-NH2; thioether N-14)
